From US20190175519A1, “Naloxone Transdermal Delivery Devices and Methods for Using the Same” (Teikoku Pharma USA, Inc., priority 2017, published 2019)

Test: Pharmacokinetics of transdermal naloxone formulations compared to intravenously administered naloxone
Design: species or system Gottingen mini-pigs
Conditions: female, Gottingen, minipig, in vivo; IV bolus 0.01 mg/kg via marginal ear vein; first time point collected; post dose
From the text: The purpose of this study was to determine the dermal irritation and pharmacokinetics of two transdermal naloxone formulations when worn for three days by naïve female Gottingen mini-pigs and to compare the pharmacokinetic transdermal profiles to the PK of intravenously (IV) administered naloxone.
Test materials (Naloxone Transdermal Formulations 1 & 2) were in the form of a single patch that was applied to the prepared skin site of the animals and remained on for a period of three (3) days.
The positive control article (marketed formulation), Naloxone (Narcan 0.4 mg/mL) was diluted with sterile 0.9% normal saline to a concentration of 0.04 mg/mL in order to achieve a desired dose volume of 0.25 mL/kg and dosage of 0.01 mg/kg. […]
Group 3: Narcan intravenous formulation (0.4 mg/mL) was diluted with sterile 0.9% normal saline to a concentration of 0.04 mg/mL. The dose volumes were calculated using the individual body weights of the pigs on the day of dosing. […]
The time of Test Material patch application and removal were recorded for each animal so that dermal scoring and PK time-points were calculated. The time of intravenous injection was also recorded so that PK time-points were calculated.

## C=CCN1CC[C@]23c4c5ccc(O)c4O[C@H]2C(=O)CC[C@@]3(O)[C@H]1C5 [Naloxone, 17-allyl-4,5α-epoxy-3,14-dihydroxymorphinan-6-one]
  Tmax: 5 min
